Data set [1] is described as follows: Isolability / rate of nitroxyl release on attempted synthesis. The class given is physicochemical. Particulars: electron withdrawing group p-nitrophenyl; nitrosation of 4g with NaNO2 in glacial acetic acid. The procedure: It has been found herein that the rate of release is so fast, when the electron withdrawing group on the carbon acid is p-nitrophenyl, e.g., when the compound is (I) below.
The same would be true where the electron withdrawing group is nitro. Thus the compound of the invention excludes the cases where the electron withdrawing group is nitro or p-nitrophenyl.
A freshly prepared solution of aqueous 10M NaNO2 (0.59 ml, 5.9 mmol) is added dropwise with stirring to a cooled (ice/H2O bath) solution of (1.22 g, 4.9 mmol) 4g in glacial acetic acid (1.5 ml). Stirring is continued for 1 hour. The reaction mixture is diluted with the water (5 mL) and precipitates are filtered off at vacuum. The filter cake is washed with water (20 ml), hexane (20 ml) and dried under vacuum to give

For data set [2], the system named is ischemic reperfusion injury. As to the kind of experiment: Prevention of ischemic reperfusion injury (Working Example V). The class given is in vivo, human. Particulars: person, heart attack, bypass surgery; intravenously, blood concentration of 10 nanomolar from 15 minutes before reperfusion up to 20 minutes thereafter. The procedure:
A person presents with a heart attack. Blockage is treated with bypass surgery. The patient is give compound (II) intravenously to maintain a blood concentration of 10 nanomolar 15 minutes before reperfusion up to 20 minutes thereafter.

Data set [3] relates to congestive heart failure and a dilated cardiomyopathy. As to the kind of experiment: Treatment of heart failure (Working Example IV). The class given is in vivo, human. To be noted: person with congestive heart failure and dilated cardiomyopathy; intravenously, blood concentration of 10 nanomolar. The procedure: A person with congestive heart failure and a dilated cardiomyopathy is administered compound (II) intravenously (to obtain a blood concentration of 10 nanomolar). Their ejection fraction improves, their blood pressure decreases, and […] pO2 improves on room air. Symptoms of angina also decrease.

Entries after “also recorded” stand apart in the source; their conditions may differ.

Turning to `CC(=O)C(Cc1ccc([N+](=O)[O-])cc1)(N=O)C(C)=O` [Compound (I)], the “stability / isolability (rate of nitroxyl release)” value in data set [1] was “cannot be isolated; also recorded: couldn't be isolated”.

Take `CC(=O)C(Cc1ccc(Br)cc1)(N=O)C(C)=O` [Compound (II), 3-(4-bromobenzyl)-3-nitroso-2,4-pentanedione]: the ischemic reperfusion injury entry in data set [2] was “does not occur”. Moreover, in data set [3], the blood pressure entry is given as “decreases”, the ejection fraction result was “improves”, the “pO2 on room air” value is listed as “improves” and the symptoms of angina entry is on record as “decrease”.

(Values after patent US7935847B2, “Nitroxyl ion source with second order reaction nitroxyl release” (Duke University, priority 2007, dated 2011).)
